ChEMBL document CHEMBL4715821, “Discovery of 4-ethoxy-7H-pyrrolo[2,3-d]pyrimidin-2-amines as potent, selective and orally bioavailable LRRK2 inhibitors” (Bioorg Med Chem Lett, 2018)

Tests used:
[1] = target: Cytoplasmic tyrosine-protein kinase BMX (Homo sapiens) (UniProt P51813); test: Inhibition of wild-type human full length BMX (M1 to H675 residues) expressed in bacterial expression system assessed as residual activity at 1 uM by Kinomescan method relative to control
[2] = target: Hepatocyte growth factor receptor (Homo sapiens) (UniProt P08581); test: Inhibition of wild-type human partial length c-MET (D1010 to S1367 residues) expressed in bacterial expression system assessed as residual activity at 1 uM by Kinomescan method relative to control
[3] = target: Calcium/calmodulin-dependent protein kinase type 1G (Homo sapiens) (UniProt Q96NX5); test: Inhibition of wild-type human partial length CAMK1G (M1 to A342 residues) expressed in bacterial expression system assessed as residual activity at 1 uM by Kinomescan method relative to control
[4] = target: Calcium/calmodulin-dependent protein kinase type II subunit gamma (Homo sapiens) (UniProt Q13555); test: Inhibition of wild-type human partial length CAMK2G (R9 to A303 residues) expressed in bacterial expression system assessed as residual activity at 1 uM by Kinomescan method relative to control
[5] = target: Cyclin-dependent kinase 2/cyclin E1 (Homo sapiens) (UniProt P24864+P24941); test: Inhibition of wild-type human full length CDK2 (M1 to L298 residues)/Cyclin E expressed in bacterial expression system assessed as residual activity at 1 uM by Kinomescan method relative to control
[6] = target: CDK6/cyclin D1 (Homo sapiens) (UniProt P24385+Q00534); test: Inhibition of wild-type human full length CDK6 (M1 to A326 residues)/cyclin D1 expressed in mammalian expression system assessed as residual activity at 1 uM by Kinomescan method relative to control
[7] = target: Ephrin type-B receptor 3 (Homo sapiens) (UniProt P54753); test: Inhibition of wild-type human partial length EPHB3 (Q599 to T928 residues) expressed in bacterial expression system assessed as residual activity at 1 uM by Kinomescan method relative to control
[8] = target: Mitogen-activated protein kinase 3 (Homo sapiens) (UniProt P27361); test: Inhibition of wild-type human full length ERK1 (M1 to P379 residues) expressed in bacterial expression system assessed as residual activity at 1 uM by Kinomescan method relative to control
[9] = target: Beta-adrenergic receptor kinase 1 (Homo sapiens) (UniProt P25098); test: Inhibition of wild-type human full length GRK2 (M1 to L689 residues) expressed in mammalian expression system assessed as residual activity at 1 uM by Kinomescan method relative to control
[10] = target: Mitogen-activated protein kinase kinase kinase kinase 4 (Homo sapiens) (UniProt O95819); test: Inhibition of wild-type human partial length MAP4K4 (M1 to R310 residues) expressed in bacterial expression system assessed as residual activity at 1 uM by Kinomescan method relative to control
[11] = target: Mitogen-activated protein kinase 9 (Homo sapiens) (UniProt P45984); test: Inhibition of wild-type human full length JNK2 (M1 to Q382 residues) expressed in mammalian expression system assessed as residual activity at 1 uM by Kinomescan method relative to control
[12] = target: Tyrosine-protein kinase Lck (Homo sapiens) (UniProt P06239); test: Inhibition of wild-type human partial length LCK (R207 to P509 residues) expressed in bacterial expression system assessed as residual activity at 1 uM by Kinomescan method relative to control
[13] = target: Serine/threonine-protein kinase 10 (Homo sapiens) (UniProt O94804); test: Inhibition of wild-type human partial length LOK (E16 to V314 residues) expressed in bacterial expression system assessed as residual activity at 1 uM by Kinomescan method relative to control
[14] = target: Serine/threonine-protein kinase 3 (Homo sapiens) (UniProt Q13188); test: Inhibition of wild-type human partial length MST2 (D17 to E318 residues) expressed in bacterial expression system assessed as residual activity at 1 uM by Kinomescan method relative to control
[15] = target: Serine/threonine-protein kinase MARK2 (Homo sapiens) (UniProt Q7KZI7); test: Inhibition of wild-type human partial length MARK2 (M1 to R450 residues) expressed in bacterial expression system assessed as residual activity at 1 uM by Kinomescan method relative to control
[16] = target: Serine/threonine-protein kinase D2 (Homo sapiens) (UniProt Q9BZL6); test: Inhibition of wild-type human partial length PRKD2 (A519 to E838 residues) expressed in bacterial expression system assessed as residual activity at 1 uM by Kinomescan method relative to control
[17] = target: Proto-oncogene tyrosine-protein kinase ROS (Homo sapiens) (UniProt P08922); test: Inhibition of wild-type human partial length ROS1 (A1921 to N2240 residues) expressed in bacterial expression system assessed as residual activity at 1 uM by Kinomescan method relative to control
[18] = target: Serine/threonine-protein kinase Sgk2 (Homo sapiens) (UniProt Q9HBY8); test: Inhibition of wild-type human partial length SGK2 (L54 to C427 residues) expressed in mammalian expression system assessed as residual activity at 1 uM by Kinomescan method relative to control
[19] = target: SRSF protein kinase 2 (Homo sapiens) (UniProt P78362); test: Inhibition of wild-type human full length SRPK2 (M1 to S686 residues) expressed in bacterial expression system assessed as residual activity at 1 uM by Kinomescan method relative to control
[20] = target: Serine/threonine-protein kinase TBK1 (Homo sapiens) (UniProt Q9UHD2); test: Inhibition of wild-type human full length TBK1 (M1 to L729 residues) expressed in mammalian expression system assessed as residual activity at 1 uM by Kinomescan method relative to control
[21] = target: Non-receptor tyrosine-protein kinase TYK2 (Homo sapiens) (UniProt P29597); test: Inhibition of wild-type human partial length TYK2 expressed in mammalian expression system assessed as residual activity at 1 uM by Kinomescan method relative to control
[22] = target: Serine/threonine-protein kinase DCLK1 (Homo sapiens) (UniProt O15075); test: Inhibition of wild-type human partial length DCAMKL1 (L270 to A662 residues) expressed in mammalian expression system assessed as residual activity at 1 uM by Kinomescan method relative to control
[23] = target: Serine/threonine-protein kinase LATS2 (Homo sapiens) (UniProt Q9NRM7); test: Inhibition of wild-type human partial length LATS2 (Q641 to V1088 residues) expressed in mammalian expression system assessed as residual activity at 1 uM by Kinomescan method relative to control
[24] = target: Dual specificity testis-specific protein kinase 1 (Homo sapiens) (UniProt Q15569); test: Inhibition of wild-type human full length TESK1 (R37 to S626 residues) expressed in bacterial expression system assessed as residual activity at 1 uM by Kinomescan method relative to control
[25] = target: Protein-tyrosine kinase 6 (Homo sapiens) (UniProt Q13882); test: Inhibition of wild-type human partial length BRK (L166 to T451 residues) expressed in bacterial expression system assessed as residual activity at 1 uM by Kinomescan method relative to control

Chain of Serine/threonine-protein kinase Sgk2 (Homo sapiens) (Q9HBY8 whole entry, the tested form may be a part): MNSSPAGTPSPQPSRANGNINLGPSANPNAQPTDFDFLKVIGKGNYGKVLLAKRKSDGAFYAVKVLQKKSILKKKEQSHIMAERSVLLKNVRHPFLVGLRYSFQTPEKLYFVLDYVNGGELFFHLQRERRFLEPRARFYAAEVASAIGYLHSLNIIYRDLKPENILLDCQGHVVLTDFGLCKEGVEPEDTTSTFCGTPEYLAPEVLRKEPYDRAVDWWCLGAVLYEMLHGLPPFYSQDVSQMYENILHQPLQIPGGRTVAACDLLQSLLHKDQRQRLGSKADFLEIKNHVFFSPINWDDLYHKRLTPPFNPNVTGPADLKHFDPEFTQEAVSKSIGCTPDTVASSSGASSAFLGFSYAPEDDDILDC
Chain of Beta-adrenergic receptor kinase 1 (Homo sapiens) (P25098 whole entry, the tested form may be a part): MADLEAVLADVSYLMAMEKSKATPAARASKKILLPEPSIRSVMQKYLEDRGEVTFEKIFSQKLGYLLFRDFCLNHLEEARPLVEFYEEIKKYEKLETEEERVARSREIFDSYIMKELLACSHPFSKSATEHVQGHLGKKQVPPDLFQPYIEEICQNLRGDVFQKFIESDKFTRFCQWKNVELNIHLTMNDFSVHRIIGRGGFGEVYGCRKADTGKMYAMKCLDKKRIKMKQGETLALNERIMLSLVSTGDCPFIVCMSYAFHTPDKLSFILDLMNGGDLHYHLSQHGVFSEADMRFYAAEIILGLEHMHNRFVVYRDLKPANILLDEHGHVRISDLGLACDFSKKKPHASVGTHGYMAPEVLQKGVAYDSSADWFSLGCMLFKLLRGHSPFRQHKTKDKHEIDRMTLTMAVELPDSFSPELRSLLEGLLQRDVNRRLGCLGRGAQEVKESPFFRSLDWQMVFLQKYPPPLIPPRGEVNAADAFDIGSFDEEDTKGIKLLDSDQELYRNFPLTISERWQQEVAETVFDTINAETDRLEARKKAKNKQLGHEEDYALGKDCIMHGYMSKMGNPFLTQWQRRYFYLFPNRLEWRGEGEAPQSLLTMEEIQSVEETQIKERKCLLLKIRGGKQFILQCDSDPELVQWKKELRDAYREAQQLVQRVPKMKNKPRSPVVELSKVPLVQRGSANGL
Chain of Tyrosine-protein kinase Lck (Homo sapiens) (P06239 2-509 limits assumed): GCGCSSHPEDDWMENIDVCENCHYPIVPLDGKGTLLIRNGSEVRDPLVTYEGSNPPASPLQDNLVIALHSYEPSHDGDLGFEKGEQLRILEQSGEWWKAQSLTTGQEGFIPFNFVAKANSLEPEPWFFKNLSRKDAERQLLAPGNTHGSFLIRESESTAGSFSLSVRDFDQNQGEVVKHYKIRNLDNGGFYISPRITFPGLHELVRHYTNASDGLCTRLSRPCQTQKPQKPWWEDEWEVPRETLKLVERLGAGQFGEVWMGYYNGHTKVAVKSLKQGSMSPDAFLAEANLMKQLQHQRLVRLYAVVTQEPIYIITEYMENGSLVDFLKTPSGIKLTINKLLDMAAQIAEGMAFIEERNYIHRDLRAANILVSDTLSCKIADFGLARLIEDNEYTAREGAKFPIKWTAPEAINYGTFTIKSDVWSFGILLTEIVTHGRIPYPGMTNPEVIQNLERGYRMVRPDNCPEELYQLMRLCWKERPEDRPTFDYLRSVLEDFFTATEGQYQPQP
Chain of SRSF protein kinase 2 (Homo sapiens) (P78362 whole entry, looked up, the tested form may be a part): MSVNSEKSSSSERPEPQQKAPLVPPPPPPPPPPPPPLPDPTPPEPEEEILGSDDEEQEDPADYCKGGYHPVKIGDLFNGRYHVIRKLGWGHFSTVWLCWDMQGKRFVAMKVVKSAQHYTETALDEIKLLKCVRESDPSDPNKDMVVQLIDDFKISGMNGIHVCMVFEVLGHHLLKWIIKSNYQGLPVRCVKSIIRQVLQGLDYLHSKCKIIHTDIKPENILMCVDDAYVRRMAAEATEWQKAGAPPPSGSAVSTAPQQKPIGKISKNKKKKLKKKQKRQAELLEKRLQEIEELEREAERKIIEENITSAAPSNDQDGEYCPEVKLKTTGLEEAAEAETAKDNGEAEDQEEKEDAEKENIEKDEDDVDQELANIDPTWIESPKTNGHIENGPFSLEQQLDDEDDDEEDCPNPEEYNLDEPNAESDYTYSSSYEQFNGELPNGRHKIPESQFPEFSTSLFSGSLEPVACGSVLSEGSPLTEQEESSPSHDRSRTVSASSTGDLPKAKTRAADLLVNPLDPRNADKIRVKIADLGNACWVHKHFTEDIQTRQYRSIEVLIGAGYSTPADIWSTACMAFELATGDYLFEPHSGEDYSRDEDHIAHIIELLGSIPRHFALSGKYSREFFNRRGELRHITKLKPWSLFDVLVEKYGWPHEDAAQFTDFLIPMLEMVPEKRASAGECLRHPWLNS
Chain of Dual specificity testis-specific protein kinase 1 (Homo sapiens) (Q15569 whole entry, looked up, the tested form may be a part): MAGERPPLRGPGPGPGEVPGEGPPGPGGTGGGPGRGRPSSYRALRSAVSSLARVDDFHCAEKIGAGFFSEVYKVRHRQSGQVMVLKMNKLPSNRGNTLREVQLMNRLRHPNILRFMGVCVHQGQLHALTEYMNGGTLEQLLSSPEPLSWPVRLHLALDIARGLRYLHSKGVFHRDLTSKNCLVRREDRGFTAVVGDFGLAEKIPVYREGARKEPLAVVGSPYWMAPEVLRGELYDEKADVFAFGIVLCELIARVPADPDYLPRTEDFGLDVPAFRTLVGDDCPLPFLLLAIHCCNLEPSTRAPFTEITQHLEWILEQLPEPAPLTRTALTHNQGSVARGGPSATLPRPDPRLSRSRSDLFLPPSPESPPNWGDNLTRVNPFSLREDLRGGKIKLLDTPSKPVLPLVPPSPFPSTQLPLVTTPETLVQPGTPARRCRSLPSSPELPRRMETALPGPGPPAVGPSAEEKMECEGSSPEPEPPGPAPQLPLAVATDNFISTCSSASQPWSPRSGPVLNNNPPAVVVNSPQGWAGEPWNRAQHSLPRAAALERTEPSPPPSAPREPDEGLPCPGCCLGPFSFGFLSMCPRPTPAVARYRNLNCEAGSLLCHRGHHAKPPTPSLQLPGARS
Chain of Ephrin type-B receptor 3 (Homo sapiens) (P54753 whole entry, the tested form may be a part): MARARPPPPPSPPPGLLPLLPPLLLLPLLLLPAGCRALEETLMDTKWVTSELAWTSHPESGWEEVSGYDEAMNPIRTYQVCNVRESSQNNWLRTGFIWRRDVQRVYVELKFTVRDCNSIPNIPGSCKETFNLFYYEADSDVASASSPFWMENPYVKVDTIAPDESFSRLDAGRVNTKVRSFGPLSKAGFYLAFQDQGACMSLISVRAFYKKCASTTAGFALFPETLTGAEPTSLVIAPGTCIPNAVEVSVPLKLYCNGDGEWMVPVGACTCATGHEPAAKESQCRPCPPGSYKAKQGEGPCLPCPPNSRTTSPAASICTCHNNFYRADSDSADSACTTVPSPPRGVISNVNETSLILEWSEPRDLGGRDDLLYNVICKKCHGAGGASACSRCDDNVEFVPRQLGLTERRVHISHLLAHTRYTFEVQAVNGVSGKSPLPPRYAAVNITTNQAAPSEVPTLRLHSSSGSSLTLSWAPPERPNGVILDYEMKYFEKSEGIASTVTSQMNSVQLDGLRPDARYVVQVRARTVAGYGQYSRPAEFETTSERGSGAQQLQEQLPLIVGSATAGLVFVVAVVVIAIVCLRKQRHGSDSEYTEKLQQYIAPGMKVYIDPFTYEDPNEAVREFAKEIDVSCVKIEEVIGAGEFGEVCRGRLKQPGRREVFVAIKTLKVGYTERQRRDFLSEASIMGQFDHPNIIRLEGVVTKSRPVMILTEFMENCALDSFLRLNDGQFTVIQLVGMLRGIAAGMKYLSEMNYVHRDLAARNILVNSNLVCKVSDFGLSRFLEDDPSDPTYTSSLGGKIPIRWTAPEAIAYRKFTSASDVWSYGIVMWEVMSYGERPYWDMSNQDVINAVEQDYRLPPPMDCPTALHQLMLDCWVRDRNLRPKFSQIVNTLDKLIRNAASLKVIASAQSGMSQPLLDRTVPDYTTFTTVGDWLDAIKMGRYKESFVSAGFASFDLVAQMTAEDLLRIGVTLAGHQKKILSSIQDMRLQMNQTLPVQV
Chain of Serine/threonine-protein kinase 3 (Homo sapiens) (Q13188 whole entry, the tested form may be a part): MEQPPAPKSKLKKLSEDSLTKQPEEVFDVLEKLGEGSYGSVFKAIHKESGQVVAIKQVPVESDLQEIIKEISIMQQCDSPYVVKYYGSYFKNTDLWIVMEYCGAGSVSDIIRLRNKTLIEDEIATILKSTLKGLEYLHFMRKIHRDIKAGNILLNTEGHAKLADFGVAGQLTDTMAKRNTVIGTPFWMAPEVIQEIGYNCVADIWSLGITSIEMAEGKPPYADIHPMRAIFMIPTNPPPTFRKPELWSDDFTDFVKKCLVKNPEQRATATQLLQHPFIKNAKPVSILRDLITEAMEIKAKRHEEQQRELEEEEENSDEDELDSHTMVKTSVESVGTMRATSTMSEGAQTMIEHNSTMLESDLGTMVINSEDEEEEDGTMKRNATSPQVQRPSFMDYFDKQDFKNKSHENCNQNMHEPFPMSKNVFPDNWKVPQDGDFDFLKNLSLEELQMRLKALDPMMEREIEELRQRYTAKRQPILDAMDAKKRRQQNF
Chain of Calcium/calmodulin-dependent protein kinase type 1G (Homo sapiens) (Q96NX5 whole entry, the tested form may be a part): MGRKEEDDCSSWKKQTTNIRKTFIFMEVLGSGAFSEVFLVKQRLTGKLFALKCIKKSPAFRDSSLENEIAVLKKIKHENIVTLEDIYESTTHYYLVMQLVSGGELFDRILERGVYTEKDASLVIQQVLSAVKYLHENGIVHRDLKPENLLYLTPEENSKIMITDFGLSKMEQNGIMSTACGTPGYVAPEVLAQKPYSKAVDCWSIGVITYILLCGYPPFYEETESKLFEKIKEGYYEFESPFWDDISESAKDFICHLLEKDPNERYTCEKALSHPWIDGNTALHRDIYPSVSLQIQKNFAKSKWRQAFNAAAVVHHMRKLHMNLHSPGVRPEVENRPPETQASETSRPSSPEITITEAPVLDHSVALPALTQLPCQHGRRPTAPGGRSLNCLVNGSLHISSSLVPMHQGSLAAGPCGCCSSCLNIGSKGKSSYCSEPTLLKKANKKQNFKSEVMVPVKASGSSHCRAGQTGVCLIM

Q: For `CCOc1nc(Nc2ccc(C(=O)N3CCOCC3)cc2OC)nc2[nH]ccc12`, which Activity [1] is on record?
A: Its Activity is 92.5%.

Q: What about the Activity [2] of the same compound?
A: The Activity was 104%.

Q: And the Activity [3]?
A: Its Activity is 106%.

Q: What about the Activity [4] of the same compound?
A: The Activity was 121%.

Q: And the Activity [5]?
A: The Activity was 92.1%.

Q: And the Activity [6]?
A: The Activity was 98.8%.

Q: What about the Activity [7] of the same compound?
A: Its Activity is 94.4%.

Q: What about the Activity [8] of the same compound?
A: The Activity was 95.7%.

Q: What about the Activity [9] of the same compound?
A: Its Activity is 100%.

Q: What about the Activity [10] of the same compound?
A: Its Activity is 95.6%.

Q: And the Activity [11]?
A: The Activity was 43.1%.

Q: What about the Activity [12] of the same compound?
A: The Activity was 80.4%.

Q: And the Activity [13]?
A: Its Activity is 92.7%.

Q: And the Activity [14]?
A: The Activity was 99.3%.

Q: And the Activity [15]?
A: The Activity was 96%.

Q: And the Activity [16]?
A: The Activity was 62.1%.

Q: What about the Activity [17] of the same compound?
A: Its Activity is 52.5%.

Q: And the Activity [18]?
A: Its Activity is 88.7%.

Q: And the Activity [19]?
A: The Activity was 82%.

Q: And the Activity [20]?
A: The Activity was 91.7%.

Q: And the Activity [21]?
A: Its Activity is 96.5%.

Q: And the Activity [22]?
A: The Activity was 86.5%.

Q: And the Activity [23]?
A: The Activity was 96.3%.

Q: What about the Activity [24] of the same compound?
A: Its Activity is 104%.

Q: What about the Activity [25] of the same compound?
A: The Activity was 45.6%.
